From PubChem BioAssay AID248 (DTP/NCI, 2004)
Inconclusive results and toxic doses are left out. Rule as the data show it: active = T/C of 150% or more; inactive = T/C below 125%.

Test system: L1210 leukemia ip in BDF1 mice, survival T/C
Assay: NCI In Vivo Anticancer Drug Screen. Data for tumor model L1210 Leukemia (intraperitoneal) in B6D2F1 (BDF1) mice
Details: endpoint: mean survival time, higher = longer survival
Procedure, shortened: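 Tumor cells were implanted, animals were treated, and survival was followed. The result divides the treated measurement by the vehicle-control measurement.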

[1] = dose: 100.0 mg/kg/injection, schedule: Q01DX009 (ip), vehicle: saline with Tween-80
[2] = dose: 100.0 mg/kg/injection, schedule: Q04DX003 (ip), vehicle: saline with Tween-80
[3] = dose: 200.0 mg/kg/injection, schedule: Q01DX009 (ip), vehicle: saline with Tween-80
[4] = dose: 200.0 mg/kg/injection, schedule: Q04DX003 (ip), vehicle: saline with Tween-80
[5] = dose: 400.0 mg/kg/injection, schedule: Q01DX009 (ip), vehicle: saline with Tween-80
[6] = dose: 400.0 mg/kg/injection, schedule: Q04DX003 (ip), vehicle: saline with Tween-80
[7] = dose: 100.0 mg/kg/injection, schedule: Q01DX001 (ip), vehicle: saline
[8] = dose: 200.0 mg/kg/injection, schedule: Q01DX001 (ip), vehicle: saline
[9] = dose: 100.0 mg/kg/injection, schedule: Q04DX002 (ip), vehicle: saline with Tween-80
[10] = dose: 200.0 mg/kg/injection, schedule: Q04DX002 (ip), vehicle: saline with Tween-80
[11] = dose: 400.0 mg/kg/injection, schedule: Q04DX002 (ip), vehicle: saline with Tween-80
[12] = dose: 400.0 mg/kg/injection, schedule: Q01DX001 (ip), vehicle: saline

Measured: T/C

Cc1cccc(C)c1NC(=O)C(C)C
inactive: [1] 94 % of control | [2] 98 % of control | [3] 95 % of control | [4] 98 % of control | [5] 90 % of control | [6] 96 % of control

NNC(=O)Cc1ccc([N+](=O)[O-])cc1
inactive: dose: 50.0 mg/kg/injection, schedule: Q01DX009 (ip), vehicle: saline 94 % of control | [7] 97 % of control | dose: 100.0 mg/kg/injection, schedule: Q01DX009 (ip), vehicle: saline 103 % of control | [8] 94 % of control | dose: 200.0 mg/kg/injection, schedule: Q01DX009 (ip), vehicle: saline 105 % of control

Cc1ccc(S(=O)(=O)NC(=O)NCCS)cc1
inactive: dose: 100.0 mg/kg/injection, schedule: Q04DX003 (ip), vehicle: saline 100 % of control | dose: 200.0 mg/kg/injection, schedule: Q04DX003 (ip), vehicle: saline 102 % of control | dose: 400.0 mg/kg/injection, schedule: Q04DX003 (ip), vehicle: saline 96 % of control

O=C(Oc1c(Cl)cc(Cl)cc1C=Nc1cccc(C(F)(F)F)c1)c1ccccc1
inactive: dose: 100.0 mg/kg/injection, schedule: Q01DX009 (ip), vehicle: other 101 % of control | dose: 200.0 mg/kg/injection, schedule: Q01DX009 (ip), vehicle: other 101 % of control | dose: 400.0 mg/kg/injection, schedule: Q01DX009 (ip), vehicle: other 101 % of control

Brc1cscc1Cc1cscc1Br
inactive: dose: 100.0 mg/kg/injection, schedule: Q01DX001 (ip), vehicle: saline with Tween-80 91 % of control | dose: 200.0 mg/kg/injection, schedule: Q01DX001 (ip), vehicle: saline with Tween-80 97 % of control | dose: 400.0 mg/kg/injection, schedule: Q01DX001 (ip), vehicle: saline with Tween-80 94 % of control

NNc1nc(Cl)cc2c1ncn2C1OC(CO)C(O)C1O (configuration not stated)
inactive: dose: 100.0 mg/kg/injection, schedule: Q01DX005 (ip), vehicle: saline 98 % of control | dose: 200.0 mg/kg/injection, schedule: Q01DX005 (ip), vehicle: saline 113 % of control

C=C(Br)CNC(=O)Nc1ccccc1
inactive: [2] 98 % of control | [4] 95 % of control | [6] 102 % of control

CCOC(=O)C(C(=O)OCC)C(CC)c1ccccc1 (configuration not stated)
inactive: [1] 101 % of control | [9] 103 % of control | [3] 92 % of control | [10] 100 % of control | [5] 95 % of control | [11] 95 % of control

CNC(=O)OC1CCCCC1CN(C)C (configuration not stated)
inactive: dose: 55.0 mg/kg/injection, schedule: Q01DX Z (ip), vehicle: saline 91 % of control | dose: 83.0 mg/kg/injection, schedule: Q01DX Z (ip), vehicle: saline 109 % of control | dose: 125.0 mg/kg/injection, schedule: Q01DX Z (ip), vehicle: saline 113 % of control

[Co+3].[NH-]CC(=O)[O-].[NH-]CCN(CC[NH-])CC[NH-].[O-][Cl+3]([O-])([O-])O
inactive: dose: 50.0 mg/kg/injection, schedule: Q01DX001 (ip), vehicle: saline 103 % of control | [7] 100 % of control | [8] 103 % of control | [12] 105 % of control

Oc1ccc2cc(Br)ccc2c1-c1c(O)ccc2cc(Br)ccc12
inactive: [9] 97 % of control | [10] 94 % of control | [11] 87 % of control

N#CCCN(CCC#N)[N+](=O)[O-]
inactive: dose: 87.5 mg/kg/injection, schedule: Q01DX009 (ip), vehicle: Klucel (hydroxypropylcellulose) (HPC) 97 % of control | dose: 100.0 mg/kg/injection, schedule: Q04DX002 (ip), vehicle: Klucel (hydroxypropylcellulose) (HPC) 98 % of control | dose: 100.0 mg/kg/injection, schedule: Q04DX002 (ip), vehicle: saline + alcohol 97 % of control | dose: 175.0 mg/kg/injection, schedule: Q01DX009 (ip), vehicle: Klucel (hydroxypropylcellulose) (HPC) 100 % of control | dose: 200.0 mg/kg/injection, schedule: Q04DX002 (ip), vehicle: Klucel (hydroxypropylcellulose) (HPC) 102 % of control | dose: 200.0 mg/kg/injection, schedule: Q04DX002 (ip), vehicle: saline + alcohol 105 % of control | dose: 400.0 mg/kg/injection, schedule: Q04DX002 (ip), vehicle: Klucel (hydroxypropylcellulose) (HPC) 87 % of control | dose: 400.0 mg/kg/injection, schedule: Q04DX002 (ip), vehicle: saline + alcohol 101 % of control

Sc1ccc2ccccc2c1CN(Cc1ccccc1)Cc1c(S)ccc2ccccc12
inactive: [7] 91 % of control | [8] 90 % of control | [12] 91 % of control
